Measured values taken from patent US20230089073A1 (Carmot Therapeutics, Inc., priority 2021, published 2023).

What follows are compounds tested against T1, human GLP-1 receptor (Homo sapiens, UniProt P43220) (assay: GLP-1R cAMP Assay). Conditions: cAMP accumulation in CHO cells stably overexpressing the human GLP-1 receptor; 30 min treatment; HitHunter cAMP kit; read-out: EC50.
T1 construct: expressed in transfected cells
Assay type: cell-based
Method in brief: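 CHO cells stably overexpressing human GLP-1R, 10,000 cells/well, treated with compound in 20-point dose response in triplicate for 30 min. cAMP accumulation read by enzyme-complementation luminescence after lysis and overnight incubation; dose-response curves fitted.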

T1 sequence (P43220 24-463): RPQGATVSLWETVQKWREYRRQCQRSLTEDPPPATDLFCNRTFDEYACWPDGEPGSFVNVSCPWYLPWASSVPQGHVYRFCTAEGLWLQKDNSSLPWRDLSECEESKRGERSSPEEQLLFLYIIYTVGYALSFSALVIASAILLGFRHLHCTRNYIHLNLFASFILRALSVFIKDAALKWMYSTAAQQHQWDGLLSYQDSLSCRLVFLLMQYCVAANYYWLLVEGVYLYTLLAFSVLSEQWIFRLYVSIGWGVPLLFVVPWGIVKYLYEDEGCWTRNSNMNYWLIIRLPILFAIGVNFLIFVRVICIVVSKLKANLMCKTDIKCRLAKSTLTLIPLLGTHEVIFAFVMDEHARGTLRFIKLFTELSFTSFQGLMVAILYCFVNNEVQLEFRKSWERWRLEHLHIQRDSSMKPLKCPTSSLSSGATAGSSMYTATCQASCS

Compound | EC50 [nM]
O=C(O)c1ccc2nc(CN3CCC(Cc4cccc(COc5ccc(Cl)cc5Cl)c4)CC3)n(Cc3ncco3)c2c1 [Compound 149, 2-{[4-({3-[(2,4-dichlorophenoxy)methyl]phenyl}methyl)piperidin-1-yl]methyl}-1-[(1,3-oxazol-2-yl)methyl]-1H-1,3-benzodiazole-6-carboxylic acid] | < 50
Cc1ccc(Oc2cccc(C(=O)N3CCN(Cc4nc5ccc(C(=O)O)cc5n4C[C@@H]4CCO4)CC3)c2)c(C)c1 [Compound 18, 2-({4-[3-(2,4-dimethylphenoxy)benzoyl]piperazin-1-yl}methyl)-1-{[(2S)-oxetan-2-yl]methyl}-1H-1,3-benzodiazole-6-carboxylic acid] | 50 to 500
COc1ccc(Oc2cccc(C(=O)N3CCN(Cc4nc5ccc(C(=O)O)cc5n4C[C@@H]4CCO4)CC3)c2)cc1 [Compound 6, 2-({4-[3-(4-methoxyphenoxy)benzoyl]piperazin-1-yl}methyl)-1-{[(2S)-oxetan-2-yl]methyl}-1H-1,3-benzodiazole-6-carboxylic acid] | > 500
CCn1cncc1Cn1c(CN2CCC(C(F)(F)c3cccc(COc4ccc(C)cc4Cl)c3)CC2)nc2ccc(C(=O)O)cc21 [Example 132, 2-((4-((3-((2-Chloro-4-methylphenoxy)methyl)phenyl)difluoromethyl)piperidin-1-yl)methyl)-1-((1-ethyl-1H-imidazol-5-yl)methyl)-1H-benzo[d]imidazole-6-carboxylic acid] | < 50
CN(C)c1cc(C(=O)N2CCN(Cc3nc4ccc(C(=O)O)cc4n3C[C@@H]3CCO3)CC2)ncn1 [Example 1, (S)-2-((4-(6-(Dimethylamino)pyrimidine-4-carbonyl)piperazin-1-yl)methyl)-1-(oxetan-2-ylmethyl)-1H-benzo[d]imidazole-6-carboxylic acid] | 50 to 500
O=C(O)c1ccc2nc(CN3CCC(Oc4ccnc(COc5ccc(F)cc5C(F)(F)F)c4)CC3)n(C[C@@H]3CCO3)c2c1 [Compound 322] | < 50
CCn1cncc1Cn1c(CN2CCC(Cc3cccc(COc4ccc(C5CC5)cc4Cl)n3)CC2)nc2ccc(C(=O)O)cc21 [Compound 153, 2-{[4-({6-[(2-chloro-4-cyclopropylphenoxy)methyl]pyridin-2-yl}methyl)piperidin-1-yl]methyl}-1-[(1-ethyl-1H-imidazol-5-yl)methyl]-1H-1,3-benzodiazole-6-carboxylic acid] | < 50
O=C(O)c1ccc2nc(CN3CCN(C(=O)c4cccc(Cc5ccc(Cl)cc5Cl)c4)CC3)n(C[C@@H]3CCO3)c2c1 [Compound 48, 2-[(4-{3-[(2,4-dichlorophenyl)methyl]benzoyl}piperazin-1-yl)methyl]-1-{[(2S)-oxetan-2-yl]methyl}-1H-1,3-benzodiazole-6-carboxylic acid] | 50 to 500
CCn1cncc1Cn1c(CN2CCN(C(=O)c3cccc(Oc4ccc(C)cc4Cl)c3)CC2)nc2ccc(C(=O)O)cc21 [Example 57, 2-((4-(3-(2-Chloro-4-methylphenoxy)benzoyl)piperazin-1-yl)methyl)-1-((1-ethyl-1H-imidazol-5-yl)methyl)-1H-benzo[d]imidazole-6-carboxylic acid] | 50 to 500
C[C@H]1C[C@H](Oc2ccnc(COc3ccc(Cl)cc3Cl)c2)CCN1Cc1nc2ccc(C(=O)O)cc2n1C[C@@H]1CCO1 [Compound 295, 2-{[(2S,4R)-4-({2-[(2,4-dichlorophenoxy)methyl]pyridin-4-yl}oxy)-2-methylpiperidin-1-yl]methyl}-1-{[(2S)-oxetan-2-yl]methyl}-1H-1,3-benzodiazole-6-carboxylic acid] | < 50
Cc1ccc(Oc2cccc(C(=O)N3CCN(Cc4nc5ccc(C(=O)O)cc5n4C[C@@H]4CCO4)CC3)c2)c(Cl)c1 [Compound 15, 2-({4-[3-(2-chloro-4-methylphenoxy)benzoyl]piperazin-1-yl}methyl)-1-{[(2S)-oxetan-2-yl]methyl}-1H-1,3-benzodiazole-6-carboxylic acid] | 50 to 500
O=C(O)c1ccc2nc(CN3CCC(Oc4ccnc(COc5ccc(Cl)cc5F)c4)CC3)n(C[C@@H]3CCO3)c2c1 [Compound 250, 2-{[4-({2-[(4-chloro-2-fluorophenoxy)methyl]pyridin-4-yl}oxy)piperidin-1-yl]methyl}-1-{[(2S)-oxetan-2-yl]methyl}-1H-1,3-benzodiazole-6-carboxylic acid] | < 50
Cc1ccc(Cc2cccc(C(=O)N3CCN(Cc4nc5ccc(C(=O)O)cc5n4C[C@@H]4CCO4)CC3)c2)cc1 [Compound 33, 2-[(4-{3-[(4-methylphenyl)methyl]benzoyl}piperazin-1-yl)methyl]-1-{[(2S)-oxetan-2-yl]methyl}-1H-1,3-benzodiazole-6-carboxylic acid] | > 500
O=C(O)c1ccc2nc(CN3CCC(Cc4cccc(COc5ccc(Cl)cc5Cl)c4)CC3)n(C[C@@H]3CCO3)c2c1 [Compound 103, 2-{[4-({3-[(2,4-dichlorophenoxy)methyl]phenyl}methyl)piperidin-1-yl]methyl}-1-{[(2S)-oxetan-2-yl]methyl}-1H-1,3-benzodiazole-6-carboxylic acid] | < 50
Cn1cncc1Cn1c(CN2CCC(Oc3cccc(COc4ccc(Cl)cc4Cl)c3)CC2)nc2ccc(C(=O)O)cc21 [Compound 255, 2-[(4-{3-[(2,4-dichlorophenoxy)methyl]phenoxy}piperidin-1-yl)methyl]-1-[(1-methyl-1H-imidazol-5-yl)methyl]-1H-1,3-benzodiazole-6-carboxylic acid] | < 50
O=C(O)c1ccc2nc(CN3CCC(Oc4ccnc(COc5ccc(Cl)cc5Cl)c4)CC3)n(Cc3ccno3)c2c1 [Compound 257, 2-{[4-({2-[(2,4-dichlorophenoxy)methyl]pyridin-4-yl}oxy)piperidin-1-yl]methyl}-1-[(1,2-oxazol-5-yl)methyl]-1H-1,3-benzodiazole-6-carboxylic acid] | < 50
O=C(O)c1ccc2nc(CN3CCC(Oc4ccnc(COc5ccc(Cl)cc5CF)c4)CC3)n(C[C@@H]3CCO3)c2c1 [Example 299, (S)-2-((4-((2-((4-Chloro-2-(fluoromethyl)phenoxy)methyl)pyridin-4-yl)oxy)piperidin-1-yl)methyl)-1-(oxetan-2-ylmethyl)-1H-benzo[d]imidazole-6-carboxylic acid] | < 50
N#Cc1ccc(OCc2ccc(C(=O)N3CCN(Cc4nc5ccc(C(=O)O)cc5n4C[C@@H]4CCO4)CC3)o2)c(F)c1 [Compound 37, 2-[(4-{5-[(4-cyano-2-fluorophenoxy)methyl]furan-2-carbonyl}piperazin-1-yl)methyl]-1-{[(2S)-oxetan-2-yl]methyl}-1H-1,3-benzodiazole-6-carboxylic acid] | > 500
O=C(O)c1ccc2nc(CN3CCC(Oc4ccnc(COc5ccc(C(F)F)cc5F)n4)CC3)n(C[C@@H]3CCO3)c2c1 [Compound 311] | < 50
Cc1ccc(Oc2cc(C(=O)N3CCN(Cc4nc5ccc(C(=O)O)cc5n4C[C@@H]4CCO4)CC3)ncn2)cc1 [Example 34, (S)-1-(Oxetan-2-ylmethyl)-2-((4-(6-(p-tolyloxy)pyrimidine-4-carbonyl)piperazin-1-yl)methyl)-1H-benzo[d]imidazole-6-carboxylic acid] | < 50
CCn1cncc1Cn1c(CN2CCC(Oc3cccnc3COc3ccc(Cl)cc3Cl)CC2)nc2ccc(C(=O)O)cc21 [Example 271, 2-((4-((2-((2,4-Dichlorophenoxy)methyl)pyridin-3-yl)oxy)piperidin-1-yl)methyl)-1-((1-ethyl-1H-imidazol-5-yl)methyl)-1H-benzo[d]imidazole-6-carboxylic acid] | 50 to 500
CCn1cncc1Cn1c(CN2CCC(Cc3cncc(COc4ccc(Cl)cc4Cl)c3)CC2)nc2ccc(C(=O)O)cc21 [Compound 139, 2-{[4-({5-[(2,4-dichlorophenoxy)methyl]pyridin-3-yl}methyl)piperidin-1-yl]methyl}-1-[(1-ethyl-1H-imidazol-5-yl)methyl]-1H-1,3-benzodiazole-6-carboxylic acid] | < 50
O=C(O)c1cc(F)c2nc(CN3CCC(Oc4ccnc(COc5ccc(Cl)cc5F)n4)CC3)n(C[C@@H]3CCO3)c2c1 [Compound 315] | < 50
CCn1cncc1Cn1c(CN2CCC(Cc3cccc(COc4ccc(Cl)cc4Cl)c3)CC2)nc2ccc(C(=O)O)cc21 [Compound 104, 2-{[4-({3-[(2,4-dichlorophenoxy)methyl]phenyl}methyl)piperidin-1-yl]methyl}-1-[(1-ethyl-1H-imidazol-5-yl)methyl]-1H-1,3-benzodiazole-6-carboxylic acid] | < 50
Cc1ccc(N(C)c2ccnc(C(=O)N3CCN(Cc4nc5ccc(C(=O)O)cc5n4C[C@@H]4CCO4)CC3)c2)c(Cl)c1 [Compound 88, 2-[(4-{4-[(2-chloro-4-methylphenyl)(methyl)amino]pyridine-2-carbonyl}piperazin-1-yl)methyl]-1-{[(2S)-oxetan-2-yl]methyl}-1H-1,3-benzodiazole-6-carboxylic acid] | > 500
O=C(O)c1ccc2nc(CN3CCC(Oc4cc(COc5ccc(Cl)cc5Cl)ccn4)CC3)n(C[C@@H]3CCO3)c2c1 [Example 178, (S)-2-((4-((4-((2,4-Dichlorophenoxy)methyl)pyridin-2-yl)oxy)piperidin-1-yl)methyl)-1-(oxetan-2-ylmethyl)-1H-benzo[d]imidazole-6-carboxylic acid] | 50 to 500
Cc1ccc(N(C)c2cc(C(=O)N3CCN(Cc4nc5ccc(C(=O)O)cc5n4C[C@@H]4CCO4)CC3)ccn2)c(Cl)c1 [Example 99, (S)-2-((4-(2-((2-Chloro-4-methylphenyl)(methyl)amino)isonicotinoyl)piperazin-1-yl)methyl)-1-(oxetan-2-ylmethyl)-1H-benzo[d]imidazole-6-carboxylic acid] | 50 to 500
O=C(O)c1cc(F)c2nc(CN3CCC(Oc4ccnc(COc5ccc(F)cc5Cl)n4)CC3)n(C[C@@H]3CCO3)c2c1 [Compound 329] | < 50
N#CCC1(Cn2c(CN3CCC(Oc4ccnc(COc5ccc(C#N)cc5F)n4)CC3)nc3c(F)cc(C(=O)O)cc32)CC1 [Compound 339] | < 50
